# In patent US20050112573A1, “Method of detecting toxic substance” (priority 2001, published 2005):
# Tested on: yeast genes (level of expressed mRNA)
# Test: DNA chip analysis of expressed mRNA of yeast genes after 2 h culture with a toxic chemical substance
# Format: cell-based, Saccharomyces cerevisiae S288C
# Procedure, shortened: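 Values are treated-to-control fluorescence ratios from a whole-yeast-genome DNA chip (65° C, over 12 h hybridization) using Cy3/Cy5-labelled cDNA from mRNA. Log-phase S288C cells in YPD at 25° C were exposed 2 h to a toxicant at sublethal, growth-inhibiting concentration.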
substance,measurement,setting,value
HgCl2 [(3)],The level of expressed mRNA in the presence of chemical substance/,"yeast gene YKL086W, ratio to control without chemical",2.4
same,The level of expressed mRNA in the presence of chemical substance/The level of expressed mRNA in the absence of chemical substance,yeast gene YKL096W,8.1
same,The level of expressed mRNA in the presence of chemical substance/,"yeast gene YKL151C, ratio to control without chemical substance, 2 h culture",1.7
same,The level of expressed mRNA in the presence of chemical substance/,"yeast gene YKL153W, ratio to control without chemical substance, 2 h culture",2.0
same,The level of expressed mRNA in the presence of chemical substance/The level of expressed mRNA in the absence of chemical substance,yeast gene YKL165C,1.1
same,The level of expressed mRNA in the presence of chemical substance/The level of expressed mRNA in the absence of chemical substance,yeast gene YKL193C,1.1
same,The level of expressed mRNA in the presence of chemical substance/,"yeast gene YKL195W, ratio to control without chemical substance, 2 h culture",0.4
same,The level of expressed mRNA in the presence of chemical substance/in the absence of chemical substance,yeast gene YKR009C,1.5
same,The level of expressed mRNA in the presence of chemical substance/,"yeast gene YKR091W, ratio to control without chemical",0.9
same,The level of expressed mRNA in the presence of chemical substance/,"yeast gene YLR054C, ratio to control without chemical substance, 2 h culture",0.4
same,The level of expressed mRNA in the presence of chemical substance/The level of expressed mRNA in the absence of chemical substance,yeast gene YLR120C,2.4
same,The level of expressed mRNA in the presence of chemical substance/The level of expressed mRNA in the absence of chemical substance,yeast gene YLR136C,0.6
same,The level of expressed mRNA in the presence of chemical substance/,"yeast gene YLR149C, ratio to control without chemical substance, 2 h culture",3.4
same,The level of expressed mRNA in the presence of chemical substance/,"yeast gene YLR152C, ratio to control without chemical substance, 2 h culture",1.1
same,The level of expressed mRNA in the presence of chemical substance/The level of expressed mRNA in the absence of chemical substance,yeast gene YLR178C,8.8
same,The level of expressed mRNA in the presence of chemical substance/,"yeast gene YLR194C, ratio to control without chemical",1.3
same,The level of expressed mRNA in the presence of chemical substance/The level of expressed mRNA in the absence of chemical substance,yeast gene YLR250W,1.0
same,The level of expressed mRNA in the presence of chemical substance/,"yeast gene YLR324W, ratio to control without chemical substance, 2 h culture",0.9
same,The level of expressed mRNA in the presence of chemical substance/The level of expressed mRNA in the absence of chemical substance,yeast gene YLR327C,14.4
same,The level of expressed mRNA in the presence of chemical substance/,"yeast gene YLR350W, ratio to control without chemical substance, 2 h culture",3.2
same,The level of expressed mRNA in the presence of chemical substance/in the absence of chemical substance,yeast gene YLR351C,1.3
same,The level of expressed mRNA in the presence of chemical substance/The level of expressed mRNA in the absence of chemical substance,yeast gene YLR356W,4.9
same,The level of expressed mRNA in the presence of chemical substance/The level of expressed mRNA in the absence of chemical substance,yeast gene YLR362W,1.0
same,The level of expressed mRNA in the presence of chemical substance/in the absence of chemical substance,yeast gene YLR375W,0.9
same,The level of expressed mRNA in the presence of chemical substance/,"yeast gene YLR387C, ratio to control without chemical substance, 2 h culture",0.8
same,The level of expressed mRNA in the presence of chemical substance/The level of expressed mRNA in the absence of chemical substance,yeast gene YLR391W,2.9
same,The level of expressed mRNA in the presence of chemical substance/The level of expressed mRNA in the absence of chemical substance,yeast gene YLR429W,0.6
same,The level of expressed mRNA in the presence of chemical substance/,"yeast gene YLR460C, ratio to control without chemical substance, 2 h culture",2.0
same,The level of expressed mRNA in the presence of chemical substance/,"yeast gene YML117W, ratio to control without chemical substance, 2 h culture",0.9
same,The level of expressed mRNA in the presence of chemical substance/The level of expressed mRNA in the absence of chemical substance,yeast gene YMR004W,1.3
same,The level of expressed mRNA in the presence of chemical substance/,"yeast gene YMR009W, ratio to control without chemical substance, 2 h culture",0.5
same,The level of expressed mRNA in the presence of chemical substance/,"yeast gene YMR067C, ratio to control without chemical substance, 2 h culture",1.1
same,The level of expressed mRNA in the presence of chemical substance/,"yeast gene YMR090W, ratio to control without chemical substance, 2 h culture",2.3
same,The level of expressed mRNA in the presence of chemical substance/The level of expressed mRNA in the absence of chemical substance,yeast gene YMR094W,1.3
same,The level of expressed mRNA in the presence of chemical substance/,"yeast gene YMR095C, ratio to control without chemical",1.6
same,The level of expressed mRNA in the presence of chemical substance/,"yeast gene YMR097C, ratio to control without chemical substance, 2 h culture",0.7
same,The level of expressed mRNA in the presence of chemical substance/,"yeast gene YMR102C, ratio to control without chemical substance, 2 h culture",1.1
same,The level of expressed mRNA in the presence of chemical substance/The level of expressed mRNA in the absence of chemical substance,yeast gene YMR104C,2.2
same,The level of expressed mRNA in the presence of chemical substance/,"yeast gene YMR107W, ratio to control without chemical substance, 2 h culture",1.7
same,The level of expressed mRNA in the presence of chemical substance/,"yeast gene YMR180C, ratio to control without chemical substance, 2 h culture",1.0
same,The level of expressed mRNA in the presence of chemical substance/,"yeast gene YMR184W, ratio to control without chemical substance, 2 h culture",1.0
same,The level of expressed mRNA in the presence of chemical substance/,"yeast gene YMR191W, ratio to control without chemical substance, 2 h culture",1.9
same,The level of expressed mRNA in the presence of chemical substance/The level of expressed mRNA in the absence of chemical substance,yeast gene YMR219W,1.0
same,The level of expressed mRNA in the presence of chemical substance/The level of expressed mRNA in the absence of chemical substance,yeast gene YMR226C,1.4
same,The level of expressed mRNA in the presence of chemical substance/in the absence of chemical substance,yeast gene YMR267W,0.7
same,The level of expressed mRNA in the presence of chemical substance/The level of expressed mRNA in the absence of chemical substance,yeast gene YMR275C,1.2
same,The level of expressed mRNA in the presence of chemical substance/The level of expressed mRNA in the absence of chemical substance,yeast gene YMR276W,1.5
same,The level of expressed mRNA in the presence of chemical substance/in the absence of chemical substance,yeast gene YMR278W,1.4
same,The level of expressed mRNA in the presence of chemical substance/in the absence of chemical substance,yeast gene YMR293C,1.6
same,The level of expressed mRNA in the presence of chemical substance/,"yeast gene YMR295C, ratio to control without chemical substance, 2 h culture",1.2
same,The level of expressed mRNA in the presence of chemical substance/The level of expressed mRNA in the absence of chemical substance,yeast gene YMR314W,0.9
same,The level of expressed mRNA in the presence of chemical substance/,"yeast gene YMR316W, ratio to control without chemical substance, 2 h culture",1.1
same,The level of expressed mRNA in the presence of chemical substance/The level of expressed mRNA in the absence of chemical substance,yeast gene YNL006W,1.3
same,The level of expressed mRNA in the presence of chemical substance/The level of expressed mRNA in the absence of chemical substance,yeast gene YNL007C,5.1
same,The level of expressed mRNA in the presence of chemical substance/,"yeast gene YNL044W, ratio to control without chemical substance, 2 h culture",2.3
